The OligoGym collection
Strand notation (5' to 3'): a small letter for the sugar, then the base; units joined by * are phosphorothioate-linked, units joined directly phosphodiester-linked; [ ] holds rarer units or linkages, { } end groups; capitals alone tell only the bases. HELM strings list units from the 5' end as sugar, base in round brackets, then linkage (d deoxyribose, r ribose, m 2'-O-methyl, p phosphodiester). [sp] = phosphorothioate linkage; d = 2'-deoxy (DNA); m = 2'-O-methyl

What was measured:
CDKN2B-AS1 [1] = test: HEK293-TLR7, 100 nM ASO, then resiquimod
CDKN2B-AS1 [2] = test: HEK293-TLR8, 100 nM ASO, then resiquimod
EGFR [3] = test: HEK293-TLR7, 100 nM ASO, then resiquimod
EGFR [4] = test: HEK293-TLR8, 100 nM ASO, then resiquimod

RNA1{m(U)[sp].m(A)[sp].m(U)[sp].m(U)[sp].m(U)[sp].d(C)[sp].d(C)[sp].d(A)[sp].d(C)[sp].d(A)[sp].d(T)[sp].d(G)[sp].d(C)[sp].d(C)[sp].d(C)[sp].m(A)[sp].m(G)[sp].m(U)[sp].m(G)[sp].m(U)}$$$$
TLR7 signal (NF-kB luciferase) (% of resiquimod alone) (CDKN2B-AS1 [1]): 30.5 | TLR8 potentiation (NF-kB luciferase) (fold of resiquimod alone) (CDKN2B-AS1 [2]): 2.77

RNA1{m(U)[sp].m(C)[sp].m(U)[sp].m(C)[sp].m(C)[sp].d(A)[sp].d(T)[sp].d(G)[sp].d(T)[sp].d(C)[sp].d(C)[sp].d(C)[sp].d(A)[sp].d(G)[sp].d(G)[sp].m(C)[sp].m(C)[sp].m(U)[sp].m(C)[sp].m(C)}$$$$
TLR7 signal (NF-kB luciferase) (% of resiquimod alone) (CDKN2B-AS1 [1]): 43.5 | TLR8 potentiation (NF-kB luciferase) (fold of resiquimod alone) (CDKN2B-AS1 [2]): 3.41

RNA1{m(U)[sp].m(G)[sp].m(U)[sp].m(G)[sp].m(A)[sp].d(A)[sp].d(A)[sp].d(A)[sp].d(G)[sp].d(A)[sp].d(T)[sp].d(T)[sp].d(A)[sp].d(T)[sp].d(C)[sp].m(U)[sp].m(U)[sp].m(C)[sp].m(U)[sp].m(U)}$$$$
TLR7 signal (NF-kB luciferase) (% of resiquimod alone) (CDKN2B-AS1 [1]): 34.5 | TLR8 potentiation (NF-kB luciferase) (fold of resiquimod alone) (CDKN2B-AS1 [2]): 2.79

RNA1{m(U)[sp].m(U)[sp].m(A)[sp].m(A)[sp].m(A)[sp].d(T)[sp].d(A)[sp].d(A)[sp].d(T)[sp].d(C)[sp].d(T)[sp].d(A)[sp].d(G)[sp].d(T)[sp].d(T)[sp].m(U)[sp].m(G)[sp].m(A)[sp].m(A)[sp].m(G)}$$$$
TLR7 signal (NF-kB luciferase) (% of resiquimod alone) (CDKN2B-AS1 [1]): 25.7 | TLR8 potentiation (NF-kB luciferase) (fold of resiquimod alone) (CDKN2B-AS1 [2]): 3.96

RNA1{m(U)[sp].m(U)[sp].m(G)[sp].m(U)[sp].m(G)[sp].d(A)[sp].d(A)[sp].d(A)[sp].d(A)[sp].d(G)[sp].d(A)[sp].d(T)[sp].d(T)[sp].d(A)[sp].d(T)[sp].m(C)[sp].m(U)[sp].m(U)[sp].m(C)[sp].m(U)}$$$$
TLR7 signal (NF-kB luciferase) (% of resiquimod alone) (CDKN2B-AS1 [1]): 35 | TLR8 potentiation (NF-kB luciferase) (fold of resiquimod alone) (CDKN2B-AS1 [2]): 1.05

mA*mA*mA*mA*mA*dT*dT*dA*dC*dT*dT*dT*dA*dA*dA*mA*mG*mC*mA*mA
TLR7 signal (NF-kB luciferase) (% of resiquimod alone) (EGFR [3]): 71.1 | TLR8 potentiation (NF-kB luciferase) (fold of resiquimod alone) (EGFR [4]): 1.32

mA*mA*mA*mA*mG*dG*dA*dG*dA*dA*dA*dA*dC*dT*dA*mU*mC*mU*mU*mC
TLR7 signal (NF-kB luciferase) (% of resiquimod alone) (EGFR [3]): 47.6 | TLR8 potentiation (NF-kB luciferase) (fold of resiquimod alone) (EGFR [4]): 1.65

mA*mA*mG*mG*mC*dC*dC*dT*dT*dC*dG*dC*dA*dC*dT*mU*mC*mU*mU*mA
TLR7 signal (NF-kB luciferase) (% of resiquimod alone) (EGFR [3]): 31.2 | TLR8 potentiation (NF-kB luciferase) (fold of resiquimod alone) (EGFR [4]): 1.49

mA*mA*mU*mU*mA*dC*dT*dT*dT*dA*dA*dA*dA*dG*dC*mA*mA*mA*mA*mG
TLR7 signal (NF-kB luciferase) (% of resiquimod alone) (EGFR [3]): 77.1 | TLR8 potentiation (NF-kB luciferase) (fold of resiquimod alone) (EGFR [4]): 2.07

mA*mC*mA*mG*mU*dG*dT*dT*dG*dA*dG*dA*dT*dA*dC*mU*mC*mG*mG*mG
TLR7 signal (NF-kB luciferase) (% of resiquimod alone) (EGFR [3]): 47.6 | TLR8 potentiation (NF-kB luciferase) (fold of resiquimod alone) (EGFR [4]): 2.73

mA*mG*mG*mU*mG*dT*dC*dC*dT*dT*dG*dC*dA*dC*dG*mU*mG*mG*mC*mU
TLR7 signal (NF-kB luciferase) (% of resiquimod alone) (EGFR [3]): 76.4 | TLR8 potentiation (NF-kB luciferase) (fold of resiquimod alone) (EGFR [4]): 1.27

mA*mG*mU*mA*mA*dA*dA*dA*dG*dC*dT*dT*dT*dT*dG*mA*mA*mG*mU*mG
TLR7 signal (NF-kB luciferase) (% of resiquimod alone) (EGFR [3]): 48.3 | TLR8 potentiation (NF-kB luciferase) (fold of resiquimod alone) (EGFR [4]): 2.7

mA*mU*mC*mC*mA*dC*dC*dA*dC*dG*dT*dC*dG*dT*dC*mC*mA*mU*mG*mU
TLR7 signal (NF-kB luciferase) (% of resiquimod alone) (EGFR [3]): 34.7 | TLR8 potentiation (NF-kB luciferase) (fold of resiquimod alone) (EGFR [4]): 1.06

mA*mU*mG*mC*mC*dA*dT*dC*dC*dA*dC*dT*dT*dG*dA*mU*mA*mG*mG*mC
TLR7 signal (NF-kB luciferase) (% of resiquimod alone) (EGFR [3]): 29.3 | TLR8 potentiation (NF-kB luciferase) (fold of resiquimod alone) (EGFR [4]): 1.16

mA*mU*mG*mU*mC*dC*dC*dG*dC*dC*dA*dC*dT*dG*dG*mA*mU*mG*mC*mU
TLR7 signal (NF-kB luciferase) (% of resiquimod alone) (EGFR [3]): 71.7 | TLR8 potentiation (NF-kB luciferase) (fold of resiquimod alone) (EGFR [4]): 0.84

mA*mU*mU*mA*mC*dT*dT*dT*dA*dA*dA*dA*dG*dC*dA*mA*mA*mA*mG*mG
TLR7 signal (NF-kB luciferase) (% of resiquimod alone) (EGFR [3]): 42.9 | TLR8 potentiation (NF-kB luciferase) (fold of resiquimod alone) (EGFR [4]): 2.17

mC*mA*mA*mG*mG*dC*dC*dC*dT*dT*dC*dG*dC*dA*dC*mU*mU*mC*mU*mU
TLR7 signal (NF-kB luciferase) (% of resiquimod alone) (EGFR [3]): 79.4 | TLR8 potentiation (NF-kB luciferase) (fold of resiquimod alone) (EGFR [4]): 2.42
